In patent US20150336943A1, “NOVEL BENZODIOXANE-PIPERIDINE DERIVATIVES AND THEIR THERAPEUTIC APPLICATIONS FOR TREATING NEUROPSYCHIATRIC DISORDERS” (PIERRE FABRE MEDICAMENT, priority 2013, published 2015):

Columns and labels:
[1] = target: T1, D2 receptor (Homo sapiens, UniProt P14416); experiment: Intrinsic (agonist) activity at the D2 receptor; type: cell-based
T1 construct: expressed in transfected cells; host or cells: recombinant human cells (so in the source)
Procedure: The prior art mentions, for benzodioxane-piperidine derivatives bearing an amide, a urea or an imidazolidinone, as non-selective alpha2-antagonists (WO 97/28157, WO 98/02435); some of these products also have a weak affinity for the D2 dopaminergic receptor (T. Imbert, J. Med. Chem, 2000, 43: 3653-3664). […] Activity as a D2 and D3 receptor agonist was determined according to the described methods (Bruins Slot L A, De Vries L, Newman-Tancredi A, Cussac D. Differential profile of antipsychotics at serotonin 5-HT1A and dopamine D2S receptors coupled to extracellular signal-regulated kinase. Eur J Pharmacol, 2006, 534; 63-70; Bruins Slot L A, Palmier C, Tardif S, Cussac D. Action of novel antipsychotics at human dopamine D3 receptors coupled to G protein and ERK1/2 activation. Neuropharmacology, 2007, 53: 232-241) for the following compounds, such as described in WO 97/28157 and WO 98/02435; • 1-benzyl-3-(2-(1-((2,3-dihydrobenzo[b][1,4]dioxin-2-yl)methyl)piperidin-4-yl)ethyl)imidazolidin-2-one • 1-(2-(1-((2,3-dihydrobenzo[b][1,4]dioxin-2-yl)methyl)piperidin-4-yl)ethyl)-3-methylimidazolidin-2-one • 1-(2,6-dichlorophenyl)-3-(2-(1-((2,3-dihydrobenzo[b][1,4]dioxin-2-yl)methyl)piperidin-4-yl)ethyl)imidazolidin-2-one • 1-(2-(1-((2,3-dihydrobenzo[b][1,4]dioxin-2-yl)methyl)piperidin-4-yl)ethyl)-3-(pyridin-4-yl)imidazolidin-2-one • 3-(2-(1-((2,3-dihydrobenzo[b][1,4]dioxin-2-yl)methyl)piperidin-4-yl)ethyl)-1-phenylimidazolidine-2,4-dione • (S)—N-(2-(1-((2,3-dihydrobenzo[b][1,4]dioxin-2-yl)methyl)piperidin-4-yl)ethyl)-[1,1′-biphenyl]-4-carboxamide • (S)—N-(2-(1-((2,3-dihydrobenzo[b][1,4]dioxin-2-yl)methyl)piperidin-4-yl)ethyl)-4-(1H-pyrrol-1-yl)benzamide • (S)—N-(2-(1-((2,3-dihydrobenzo[b][1,4]dioxin-2-yl)methyl)piperidin-4-yl)ethyl)-4-(pyridin-4-yl)benzamide • (S)—N-(2-(1-((2,3-dihydrobenzo[b][1,4]dioxin-2-yl)methyl)piperidin-4-yl)ethyl)-4-(pyridin-3-yl)benzamide • (S)—N-(2-(1-((2,3-dihydrobenzo[b][1,4]dioxin-2-yl)methyl)piperidin-4-yl)ethyl)-9-oxo-9H-fluorene-1-carboxamide.
(§1) Compounds of formula 1 have been evaluated in vitro as ligands for dopaminergic and noradrenergic receptors and modulators of the activity of these receptors according to the invention in recombinant human cells expressing the receptors. The inhibition constants (Ki) were measured for dopaminergic receptors D2 and D3, and for adrenergic receptors alpha2A, alpha2B and alpha2C, according to the described methods (Newman-Tancredi A, Assie M B, Martel J C, Cosi C, Slot L B, Palmier C, Rauly-Lestienne I, Colpaert F, Vacher B, Cussac D. F15063, a potential antipsychotic with D2/D3 antagonist, 5-HT 1A agonist and D4 partial agonist properties. I. In vitro receptor affinity and efficacy profile. Br J Pharmacol., 2007, 151:237-252). The intrinsic activity of the products for the D2 receptor was measured (Bruins Slot L A, De Vries L, Newman-Tancredi A, Cussac D. Differential profile of antipsychotics at serotonin 5-HT1A and dopamine D2S receptors coupled to extracellular signal-regulated kinase. Eur J Pharmacol, 2006, 534; 63-70. The results obtained for some of these compounds are presented in the following table.

[2] = target: T2, adrenergic receptor alpha2B (Homo sapiens, UniProt P18089); experiment: Inhibition constants (Ki) for adrenergic receptor alpha2B in recombinant cells; type: binding; settings: read-out: pKi α2B (converted)
T2 construct: expressed in transfected cells; host or cells: recombinant human cells (so in the source)
T2 sequence (P18089 1-450): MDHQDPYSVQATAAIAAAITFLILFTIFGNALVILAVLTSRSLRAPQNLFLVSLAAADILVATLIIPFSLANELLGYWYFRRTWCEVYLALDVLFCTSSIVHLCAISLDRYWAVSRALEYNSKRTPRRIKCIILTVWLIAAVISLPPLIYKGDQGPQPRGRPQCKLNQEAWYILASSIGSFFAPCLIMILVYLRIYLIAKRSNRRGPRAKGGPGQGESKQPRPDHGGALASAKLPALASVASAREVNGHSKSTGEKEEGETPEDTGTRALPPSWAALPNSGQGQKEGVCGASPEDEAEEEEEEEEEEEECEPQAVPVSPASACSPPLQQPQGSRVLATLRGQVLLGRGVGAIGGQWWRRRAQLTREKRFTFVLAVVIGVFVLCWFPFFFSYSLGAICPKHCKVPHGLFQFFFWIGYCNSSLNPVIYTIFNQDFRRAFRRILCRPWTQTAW
Procedure: as §1

[3] = target: T3, adrenergic receptor alpha2C (Homo sapiens, UniProt P18825); experiment: Inhibition constants (Ki) for adrenergic receptor alpha2C in recombinant cells; type: binding; settings: read-out: pKi α2C (converted)
T3 construct: expressed in transfected cells; host or cells: recombinant human cells (so in the source)
T3 sequence (P18825 1-462): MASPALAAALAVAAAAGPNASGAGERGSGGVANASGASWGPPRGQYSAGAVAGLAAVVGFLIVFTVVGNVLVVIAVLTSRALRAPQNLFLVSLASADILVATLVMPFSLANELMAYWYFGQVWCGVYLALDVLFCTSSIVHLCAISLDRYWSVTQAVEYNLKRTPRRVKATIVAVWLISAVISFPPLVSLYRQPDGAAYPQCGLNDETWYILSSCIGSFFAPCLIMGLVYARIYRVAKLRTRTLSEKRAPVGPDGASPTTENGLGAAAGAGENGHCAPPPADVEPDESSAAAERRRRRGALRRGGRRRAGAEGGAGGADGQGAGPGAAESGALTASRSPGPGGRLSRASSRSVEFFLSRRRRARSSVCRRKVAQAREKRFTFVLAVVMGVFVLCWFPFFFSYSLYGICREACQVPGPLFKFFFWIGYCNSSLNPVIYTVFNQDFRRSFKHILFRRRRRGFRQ
Procedure: as §1

[4] = system: MK-801-induced hyperactivity; experiment: MK-801-induced hyperactivity test in mice; type: in vivo; settings: Mus musculus
[5] = target: T4, adrenergic receptor alpha2A (Homo sapiens, UniProt P08913); experiment: Inhibition constants (Ki) for adrenergic receptor alpha2A in recombinant cells; type: binding; settings: read-out: pKi α2A (converted)
T4 construct: expressed in transfected cells; host or cells: recombinant human cells (so in the source)
T4 sequence (P08913 1-465): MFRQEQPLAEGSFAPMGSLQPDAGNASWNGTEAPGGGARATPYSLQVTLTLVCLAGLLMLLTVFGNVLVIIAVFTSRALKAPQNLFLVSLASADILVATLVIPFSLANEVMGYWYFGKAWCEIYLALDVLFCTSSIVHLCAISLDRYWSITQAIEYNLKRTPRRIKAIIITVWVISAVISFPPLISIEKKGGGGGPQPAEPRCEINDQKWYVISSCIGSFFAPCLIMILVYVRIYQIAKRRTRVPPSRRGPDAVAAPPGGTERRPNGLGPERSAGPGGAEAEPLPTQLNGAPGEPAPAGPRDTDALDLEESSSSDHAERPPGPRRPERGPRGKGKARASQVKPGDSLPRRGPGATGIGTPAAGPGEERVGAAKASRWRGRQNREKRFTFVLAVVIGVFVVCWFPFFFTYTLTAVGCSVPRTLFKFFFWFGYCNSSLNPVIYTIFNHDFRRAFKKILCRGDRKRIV
Procedure: as §1

[6] = target: T5, dopaminergic receptor D3 (Homo sapiens, UniProt P35462); experiment: Inhibition constants (Ki) for dopaminergic receptor D3 in recombinant cells; type: binding; settings: read-out: pKi D3 (converted)
T5 construct: expressed in transfected cells; host or cells: recombinant human cells (so in the source)
T5 sequence (P35462 whole entry): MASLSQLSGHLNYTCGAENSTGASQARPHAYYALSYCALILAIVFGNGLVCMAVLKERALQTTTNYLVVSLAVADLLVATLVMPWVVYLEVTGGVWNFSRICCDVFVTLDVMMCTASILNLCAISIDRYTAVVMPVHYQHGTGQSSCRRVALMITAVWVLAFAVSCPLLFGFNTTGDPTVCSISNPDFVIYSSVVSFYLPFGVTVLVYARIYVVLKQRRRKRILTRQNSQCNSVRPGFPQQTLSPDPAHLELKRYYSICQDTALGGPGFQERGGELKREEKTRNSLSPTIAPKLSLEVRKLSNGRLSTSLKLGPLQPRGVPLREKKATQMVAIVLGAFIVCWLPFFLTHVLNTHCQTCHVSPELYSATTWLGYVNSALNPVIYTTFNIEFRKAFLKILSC
Procedure: as §1

[7] = target: T6, dopaminergic receptor D2 (Homo sapiens, UniProt P14416); experiment: Inhibition constants (Ki) for dopaminergic receptor D2 in recombinant cells; type: binding; settings: read-out: pKi D2 (converted)
T6 construct: expressed in transfected cells; host or cells: recombinant human cells (so in the source)
T6 sequence (P14416 whole entry): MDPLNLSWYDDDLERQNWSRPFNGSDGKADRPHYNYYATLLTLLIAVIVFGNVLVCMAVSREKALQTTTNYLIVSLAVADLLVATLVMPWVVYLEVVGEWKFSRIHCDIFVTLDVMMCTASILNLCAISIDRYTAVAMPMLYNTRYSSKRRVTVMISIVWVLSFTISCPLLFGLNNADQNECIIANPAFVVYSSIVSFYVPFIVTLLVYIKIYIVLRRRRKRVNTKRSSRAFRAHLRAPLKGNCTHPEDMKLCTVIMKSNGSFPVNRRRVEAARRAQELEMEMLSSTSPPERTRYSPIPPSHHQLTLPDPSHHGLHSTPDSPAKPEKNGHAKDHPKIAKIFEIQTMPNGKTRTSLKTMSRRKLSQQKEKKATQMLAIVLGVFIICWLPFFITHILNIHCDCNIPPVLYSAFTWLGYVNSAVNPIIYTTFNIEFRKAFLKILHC
Procedure: as §1

T1 sequence (P14416 1-414 isoform P14416-2): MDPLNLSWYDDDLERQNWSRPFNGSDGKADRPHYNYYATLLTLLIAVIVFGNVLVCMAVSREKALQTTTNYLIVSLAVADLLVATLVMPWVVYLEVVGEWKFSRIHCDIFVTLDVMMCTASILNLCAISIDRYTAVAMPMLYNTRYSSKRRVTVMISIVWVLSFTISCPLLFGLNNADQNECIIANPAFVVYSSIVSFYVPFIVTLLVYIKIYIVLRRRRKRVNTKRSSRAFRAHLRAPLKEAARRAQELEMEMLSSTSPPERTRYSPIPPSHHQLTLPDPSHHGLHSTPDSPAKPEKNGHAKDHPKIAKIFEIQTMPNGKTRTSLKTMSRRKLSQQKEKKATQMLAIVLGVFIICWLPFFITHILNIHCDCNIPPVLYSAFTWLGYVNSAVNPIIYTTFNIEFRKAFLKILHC

SMILES | I.A.: Intrinsic activity on receptor D2 in vitro [1] | Ki [2] | Ki [3] | Ki [5] | Ki [6] | Ki [7] | ED50 [4]
O=C1OCCN1CCC1CCN(C[C@H]2COc3ccc(F)cc3O2)CC1 [Example 7, (S)-3-(2-(1-((7-fluoro-2,3-dihydrobenzo[b][1,4]dioxin-2-yl)methyl)piperidin-4-yl)ethyl)oxazolidin-2-one] | 36 percentage of that of dopamine | 1.95 nM | 0.851 nM | 8.71 nM | 6.46 nM | 14.5 nM | 0.15 mg/kg
O=C1OCCN1CCC1CCN(C[C@H]2COc3c(F)cc(F)cc3O2)CC1 [Example 10, (S)-3-(2-(1-((5,7-difluoro-2,3-dihydrobenzo[b][1,4]dioxin-2-yl)methyl)piperidin-4-yl)ethyl)oxazolidin-2-one] | 6 percentage of that of dopamine | 0.813 nM | 0.537 nM | 4.57 nM | 1.55 nM | 4.57 nM | 0.13 mg/kg
O=C1OCCN1CCC1CCN(C[C@H]2COc3c(Cl)cc(F)cc3O2)CC1 [Example 13, (S)-3-(2-(1-((5-chloro-7-fluoro-2,3-dihydrobenzo[b][1,4]dioxin-2-yl)methyl)piperidin-4-yl)ethyl)oxazolidin-2-one] | 16 percentage of that of dopamine | 2.57 nM | 0.955 nM | 7.08 nM | 0.603 nM | 0.955 nM | 0.04 mg/kg
O=C1OC[C@H](Cc2ccccc2)N1CCC1CCN(C[C@H]2COc3ccc(Br)cc3O2)CC1 [Example 26, (S)-4-benzyl-3-(2-(1-(((S)-7-bromo-2,3-dihydrobenzo[b][1,4]dioxin-2-yl)methyl)piperidin-4-yl)ethyl)oxazolidin-2-one] | 8 percentage of that of dopamine | 9.55 nM | 2.04 nM | 34.7 nM | 0.447 nM | 0.891 nM | 0.9 mg/kg
O=C1OC[C@H](Cc2ccccc2)N1CCC1CCN(C[C@H]2COc3ccc(OC(F)(F)F)cc3O2)CC1 [Example 32, (S)-4-benzyl-3-(2-(1-(((S)-7-(trifluoromethoxy)-2,3-dihydrobenzo[b][1,4]dioxin-2-yl)methyl)piperidin-4-yl)ethyl)oxazolidin-2-one] |  | 18.2 nM | 6.61 nM | 15.1 nM | 0.355 nM | 1.26 nM | 2.4 mg/kg
O=C1OC[C@H](Cc2ccccc2)N1CCC1CCN(C[C@H]2COc3cc(O)ccc3O2)CC1 [Example 36] |  | 1.17 nM | 0.562 nM | 6.03 nM | 1.29 nM | 2.14 nM | 3.4 mg/kg
O=C1OC[C@@H](CO)N1CCC1CCN(C[C@H]2COc3c(F)cc(Cl)cc3O2)CC1 [Example 62, (R)-3-(2-(1-(((S)-7-chloro-5-fluoro-2,3-dihydrobenzo[b][1,4]dioxin-2-yl)methyl)piperidin-4-yl)ethyl)-4-(hydroxymethyl)oxazolidin-2-one] | 0 percentage of that of dopamine | 10.5 nM | 1.62 nM | 30.9 nM | 0.347 nM | 1.58 nM | 2.1 mg/kg

More lines, main results first:

I.A.: Intrinsic activity on receptor D2 in vitro [1] | Ki [2] | Ki [3] | Ki [5] | Ki [6] | Ki [7] | SMILES | ED50 [4]
5 percentage of that of dopamine | 8.32 nM | 2.69 nM | 53.7 nM | 1.32 nM | 3.09 nM | O=C1OC[C@@H](CO)N1CCC1CCN(C[C@H]2COc3c(Cl)cc(F)cc3O2)CC1 [Example 63, (R)-3-(2-(1-(((S)-5-chloro-7-fluoro-2,3-dihydrobenzo[b][1,4]dioxin-2-yl)methyl)piperidin-4-yl)ethyl)-4-(hydroxymethyl)oxazolidin-2-one] | 0.2 mg/kg
13 percentage of that of dopamine | 186 nM | 8.71 nM | 200 nM | 0.417 nM | 0.24 nM | O=C1OC[C@@H](COc2ccccc2)N1CCC1CCN(C[C@H]2COc3ccc(Br)cc3O2)CC1 [Example 69, (R)-3-(2-(1-(((S)-7-bromo-2,3-dihydrobenzo[b][1,4]dioxin-2-yl)methyl)piperidin-4-yl)ethyl)-4-(phenoxymethyl)oxazolidin-2-one] | 0.6 mg/kg
 | 81.3 nM | 6.76 nM | 57.5 nM | 1.23 nM | 19.1 nM | N#Cc1ccc2c(c1)O[C@@H](CN1CCC(CCN3CCOCC3=O)CC1)CO2 [Example 85, (S)-3-((4-(2-(3-oxomorpholino)ethyl)piperidin-1-yl)methyl)-2,3-dihydrobenzo[b][1,4]dioxine-6-carbonitrile] | 0.5 mg/kg
24 percentage of that of dopamine | 1.55 nM | 0.437 nM | 4.9 nM | 3.31 nM | 15.1 nM | O=C1COCCN1CCC1CCN(C[C@H]2COc3c(F)cc(F)cc3O2)CC1 [Example 91, (S)-4-(2-(1-((5,7-difluoro-2,3-dihydrobenzo[b][1,4]dioxin-2-yl)methyl)piperidin-4-yl)ethyl)morpholin-3-one] | 0.7 mg/kg
